System: MMP-1 (matrix metalloproteinase-1)
Assay: MMP-1 inhibition activity: ELISA of MMP-1 produced by aged human dermal fibroblasts
Type: cell-based
Conditions: EGCG + GCG total 3 μg/ml at the given weight ratio
Procedure: The evaluation on MMP-1 inhibition activity was conducted in order to verify the effects of the green tea extracts of Samples 1 and 2 of Example 1 in inhibiting the production of MMP-1, which is skin tissue breakdown enzyme, in human skin fibroblast of aged human skin and in inhibiting the production of MMP-1 according to the weight ratio of EGCG and GCG, and the amount of GCG. To be specific, the evaluation was conducted through the following steps.
Normal human dermal fibroblast (NHDF; Lonza, Switzerland) was cultured in a DMEM medium (Dulbecco's modified Eagle's Medium, Gibco 1210-0038) comprising 10% of fetal bovine serum, and the culturing was all performed in a 37° C., 5% CO2 culture medium. Cells that had 6-9 sub-culture frequencies were used as young cells, and aged dermal fibroblasts were obtained by sub-culturing 37 times in such a manner that the number of cells was calculated for every sub-culture and then ⅕ of the total number of cells were newly cultured. The aged dermal fibroblasts were treated with EGCG and GCG depending on the ratio of EGCG:GCG and the concentration of GCG, or treated with Sample 1 or Sample 2.
In order to verify the amount of MMP-1 produced, the enzyme-linked immunosorbent assay (ELISA) method was used (Amersham, USA). The culture medium of the cells treated with the samples at the step 1-1 was collected and the supernatant was isolated by centrifuging at 1000×g, and then the culture medium was put into a 96-well plate coated with an MMP-1 antibody, and then a secondary antibody (horse reddish peroxidase, HRP) was reacted at room temperature for 1 hour, and washed with 100 μL PBS. The amount of MMP-1 produced was confirmed by measuring absorbance at a 490 nm wavelength after reaction and confirming its degree of color formation using a TMB substrate solution (Pierce, USA), and the MMP-1 inhibition activity (%) was calculated using the following equation.
MMP-1 inhibition activity (%)=(O.D. of the group treated with the sample at 490 nm/O.D. of the group not treated with sample at 490 nm)×100

Molecule	MMP-1 inhibition activity (%) Processed after 24 hours [%]	MMP-1 inhibition activity (%) Processed immediately [%]
O=C(O[C@@H]1Cc2c(O)cc(O)cc2O[C@H]1c1cc(O)c(O)c(O)c1)c1cc(O)c(O)c(O)c1 [GCG, (−)-gallocatechin gallate]	10 ± 1.0	55 ± 9.2
(−)-epigallocatechin gallate [EGCG]	6 ± 1.0	56 ± 9.7

— patent US12178837B2, “Composition for skin-whitening or preventing or improving skin wrinkles comprising green tea extract which has modified amounts of ingredients” (AMOREPACIFIC CORPORATION, priority 2019, dated 2024)
